Assay results taken from the supplement of paper PMC10920090.

Key:
Conditions in all cases: 72 h
MDA-MB-231 [1] = test: drug sensitivity score (DSS), cell viability CellTiter-Glo; higher = more sensitive; extreme values may be limits of the assay
BT-474 [2] = test: as above
Experimental: (§1)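 Targeted FIMM drug screen of 23 compounds at 5 concentrations over a 10,000-fold range in 384-well plates, 1250 cells/well, 72 h at 37 °C. Read-outs were CellTiter-Glo viability and CellTox Green cytotoxicity, normalised to DMSO and benzethonium chloride controls and summarised as drug sensitivity score (DSS). Cells stably transduced with shScramble or one of two shPPFIA1 constructs (shPPFIA1_1 TRCN0000002969, shPPFIA1_2 TRCN0000342514).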

UT-SCC-24A [3] = test: as above
Experimental: as §1

MDA-MB-231 [4] = test: drug sensitivity score (DSS), cytotoxicity CellTox Green; higher = more cytotoxic; extreme values may be limits of the assay
BT-474 [5] = test: as above
Experimental: as §1

UT-SCC-24A [6] = test: as above
Experimental: as §1

SMILES	drug sensitivity score (MDA-MB-231 [1]; shRNA: shPPFIA1_1) [DSS]	drug sensitivity score (MDA-MB-231 [1]; shRNA: shScramble) [DSS]	drug sensitivity score (BT-474 [2]; shRNA: shPPFIA1_1) [DSS]	drug sensitivity score (BT-474 [2]; shRNA: shPPFIA1_2) [DSS]	drug sensitivity score (BT-474 [2]; shRNA: shScramble) [DSS]	drug sensitivity score (UT-SCC-24A [3]; shRNA: shPPFIA1_1) [DSS]	drug sensitivity score (UT-SCC-24A [3]; shRNA: shPPFIA1_2) [DSS]	drug sensitivity score (UT-SCC-24A [3]; shRNA: shScramble) [DSS]	drug sensitivity score (MDA-MB-231 [4]; shRNA: shPPFIA1_1) [DSS]	drug sensitivity score (MDA-MB-231 [4]; shRNA: shScramble) [DSS]	drug sensitivity score (BT-474 [5]; shRNA: shPPFIA1_1) [DSS]	drug sensitivity score (BT-474 [5]; shRNA: shPPFIA1_2) [DSS]	drug sensitivity score (BT-474 [5]; shRNA: shScramble) [DSS]	drug sensitivity score (UT-SCC-24A [6]; shRNA: shPPFIA1_1) [DSS]	drug sensitivity score (UT-SCC-24A [6]; shRNA: shPPFIA1_2) [DSS]	drug sensitivity score (UT-SCC-24A [6]; shRNA: shScramble) [DSS]
CC(=O)NCC(=O)N1[C@@H]2CC[C@H]1c1ccc(Nc3ncc(C(F)(F)F)c(NC4CCC4)n3)cc12	5.5	21.7	2.7	2.8	4.5	8	8.7	8.5	2.8	0	3	3.7	3.5	4.1	3.9	4.3
CC(C)CC(=O)Nc1n[nH]c2c1CN(C(=O)C1CCN(C)CC1)C2(C)C	1.8	20.1	1.2	1.3	1.5	8.1	8.5	5.8	3.2	0	0.9	1.1	0.4	1.9	1.4	1.2
CN[C@@H](C)C(=O)N[C@H]1CN(C(=O)CC(C)C)CC[C@H]2CC[C@@H](C(=O)NC(c3ccccc3)c3ccccc3)N2C1=O [AT-406]	17	3.4	0	0	0	1	1.9	0	32.3	19.8	1.3	1.4	0.2	7.8	13.5	5.3
Cc1cc([C@@H](C)Nc2ccccc2C(=O)O)c2nc(N3CCOCC3)cc(=O)n2c1 [AZD-6482]	4.2	19.8	1.5	1.1	2.1	2.1	1.9	1.4	0	0.9	0.2	0.1	0.1	2	1	0.8
Cc1cc(C(=O)NOCCO)c(Nc2ccc(I)cc2F)n(C)c1=O [AZD-8330]	5.5	21.8	0	0	0	30	27.6	23.9	15	20.3	0	0	0	28.4	27.6	14.2
CN(C)C/C=C/C(=O)Nc1cc2c(Nc3ccc(F)c(Cl)c3)ncnc2cc1O[C@H]1CCOC1 [Afatinib]	0.2	1.4	13.2	13.3	16.2	18.5	18.1	13.4	0	0	7.4	8.7	7.9	20.4	19.8	12
Cn1c(=O)n(-c2ccc(C(C)(C)C#N)cc2)c2c3cc(-c4cnc5ccccc5c4)ccc3ncc21 [Dactolisib]	0	4.2	7.4	7.4	11	16.2	17	18	0	0	0	0	0	1.3	0.5	2.3
CC(=O)O[C@@]12CO[C@@H]1C[C@H](O)[C@@]1(C)C(=O)[C@H](O)C3=C(C)[C@@H](OC(=O)[C@H](O)[C@@H](NC(=O)OC(C)(C)C)c4ccccc4)C[C@@](O)([C@@H](OC(=O)c4ccccc4)[C@H]21)C3(C)C [Docetaxel]	1.3	16.8	16.1	16.8	20.6	17.3	18.8	18.7	7.3	8.7	20.1	20.5	20.9	16.2	15.2	20.1
C#Cc1cccc(Nc2ncnc3cc(OCCOC)c(OCCOC)cc23)c1 [Erlotinib]	2.8	4	2.5	2.9	3.9	20.8	14	11.9	0	0	0.8	1.1	1.2	17.8	11.4	8.3
CO[C@H]1C[C@@H]2CC[C@@H](C)[C@@](O)(O2)C(=O)C(=O)N2CCCC[C@H]2C(=O)O[C@H]([C@H](C)C[C@@H]2CC[C@@H](OCCO)[C@H](OC)C2)CC(=O)[C@H](C)/C=C(\C)[C@@H](O)[C@@H](OC)C(=O)[C@H](C)C[C@H](C)/C=C/C=C/C=C/1C [Everolimus]	0	6.1	5.2	3.6	5.2	1.3	2.5	2.9	0	0	0	0	0	0	0	0
O=C(NOCCO)c1ccc2cncn2c1Nc1ccc(I)cc1F [GDC-0623]	3.7	18.1	0	0	0	2	0	1.8	5.2	11.2	0	0	0	1.8	0	0.8
COc1cc2ncnc(Nc3ccc(F)c(Cl)c3)c2cc1OCCCN1CCOCC1 [Gefitinib]	2.3	2.3	7.8	9.1	10.8	19.6	18.4	12.1	0	0	4.1	5.6	4.8	19.4	17.3	8.3
COc1ccc(-c2ccc3ncc4c(c3c2)n(-c2ccc(N3CCNCC3)c(C(F)(F)F)c2)c(=O)n4C)cn1 [NVP-BGT226]	0.8	17.3	9.6	11.3	14.2	19.4	20.4	20.7	0	6.4	2.8	6.2	4.8	7.9	6.5	7.8
O=C(NC[C@H](O)CO)c1ccncc1Nc1ccc(I)cc1F [Pimasertib]	2.4	12.4	0.1	0.5	0.4	25.6	23.4	20.5	6.2	11.7	0	0.2	0	28.5	23.5	15.6
COc1cc(C(=O)NC2CCN(C)CC2)c(F)cc1Nc1ncc2c(n1)N(C1CCCC1)CC(F)(F)C(=O)N2C [TAK-960]	4.9	20.6	0	0	0	0	0	0	0	0.9	0	0	0	0	0	0
CO[C@H]1C[C@@H]2CC[C@@H](C)[C@@](O)(O2)C(=O)C(=O)N2CCCC[C@H]2C(=O)O[C@H]([C@H](C)C[C@@H]2CC[C@@H](OC(=O)C(C)(CO)CO)[C@H](OC)C2)CC(=O)[C@H](C)/C=C(\C)[C@@H](O)[C@@H](OC)C(=O)[C@H](C)C[C@H](C)/C=C/C=C/C=C/1C [Temsirolimus]	0	7.9	7.8	6.2	9.8	2.8	4.1	4.4	0	0	0	0	0	0	0	0
CC(=O)Nc1cccc(-n2c(=O)n(C3CC3)c(=O)c3c(Nc4ccc(I)cc4F)n(C)c(=O)c(C)c32)c1 [Trametinib]	0.7	12.4	0	0	0.1	19.6	18.5	15.4	5.3	12.5	0	0	0	18.9	18.4	7.8
C[C@@H]1COC(Nc2ccc3ncnc(Nc4ccc(OCc5nccs5)c(Cl)c4)c3c2)=N1 [Varlitinib]	1	21.3	8.2	9.3	10.7	10.7	11	9	0.2	0	3.1	4.5	3.9	10.3	10.1	4
CCC1=C[C@@H]2CN(C1)Cc1c([nH]c3ccccc13)[C@@](C(=O)OC)(c1cc3c(cc1OC)N(C)[C@H]1[C@@](O)(C(=O)OC)[C@H](OC(C)=O)[C@]4(CC)C=CCN5CC[C@]31[C@@H]54)C2 [Vinorelbine]	0	19.9	9.2	10	18.7	12	18	15.3	7.2	2.7	11.1	13.2	13.8	8.4	8.4	13.1
